We go through 24 molecules from patent publication US20130029962A1, “Substituted Heteroaromatic Pyrazole-Containing Carboxamide and Urea Compounds as Vanilloid Receptor Ligands” (Gruenenthal GmbH, priority 2011, published 2013).

SMILES strings stand for the structures.

As a reminder, the Ki is the dissociation constant of the complex between target and ligand, obtained from inhibition or displacement.

The experiment has as its target T1, vanilloid receptor 1 (VR1/TRPV1 receptor) (Homo sapiens, UniProt Q8NER1).
T1 construct: expressed in transfected cells; host or cells: CHO K1
The experiment can be described thus: Functional testing on the vanilloid receptor 1 (VR1/TRPV1): FLIPR Ca2+ influx assay, displacement of capsaicin. It is filed as cell-based, human being. Set-up: key to mode of action at VR1/TRPV1 (AG, pAG, NE), Cap: AG=agonist; NE=no effect; pAG=partial agonist. The following applies: for Ki: capsaicin (Cap) as stimulus, Ki from IC50 by Cheng-Prusoff, read-out: (f) Ki (human being) [nM] Cap; for inhibition at 5 µM: read-out: inhibition (as a percentage) at the concentration after @, Cap. Here is the method: Furthermore, preference may be given to compounds according to the invention that cause a 50 percent displacement of capsaicin, which is present at a concentration of 100 nM, in a FLIPR assay with CHO K1 cells which were transfected with the human VR1 gene at a concentration of less than 2,000 nM, preferably less than 1,000 nM, particularly preferably less than 300 nM, most particularly preferably less than 100 nM, even more preferably less than 75 nM, additionally preferably less than 50 nM, most preferably less than 10 nM.
In the process, the Ca^2+ influx is quantified in the FLIPR assay with the aid of a Ca^2+-sensitive dye (type Fluo-4, Molecular Probes Europe BV, Leiden, the Netherlands) in a fluorescent imaging plate reader (FLIPR, Molecular Devices, Sunnyvale, USA), as described hereinafter. […]
The number of cells in the suspension is set to 3×10^5 per mL and 150 μL of this suspension are in each case introduced into a recess in the cell culture plates coated as described hereinbefore. In the incubator the plates are left for two to three days at 37° C., 5% by volume of CO2 and 95% relative humidity. Subsequently, the cells are loaded with 2 μM of Fluo-4 and 0.01% by volume of Pluronic F127 (Molecular Probes Europe BV, Leiden, the Netherlands) in HBSS buffer (Hank's buffered saline solution, Gibco Invitrogen GmbH, Karlsruhe, Germany) for 30 min at 37° C., washed 3 times with HBSS buffer and after further incubation for 15 minutes at room temperature used for Ca^2+ measurement in a FLIPR assay. The Ca^2+-dependent fluorescence is in this case measured before and after the addition of substances (λex=488 nm, λem=540 nm). Quantification is carried out by measuring the highest fluorescence intensity (FC, fluorescence counts) over time.
The FLIPR protocol consists of 2 substance additions. First the compounds to be tested (10 μM) are pipetted onto the cells and the Ca^2+ influx is compared with the control (capsaicin 10 μM). This provides the result in % activation based on the Ca^2+ signal after the addition of 10 μM of capsaicin (CP). After 5 minutes' incubation, 100 nM of capsaicin are applied and the Ca^2+ influx is also determined. Desensitising agonists and antagonists lead to suppression of the Ca^2+ influx. The % inhibition is calculated compared to the maximum achievable inhibition with 10 μM of capsazepine. Triple analyses (n=3) are carried out and repeated in at least 3 independent experiments (N=4).
Starting from the percentage displacement caused by different concentrations of the compounds to be tested of general formula I, IC50 inhibitory concentrations which cause a 50-percent displacement of capsaicin were calculated. Ki values for the test substances were obtained by conversion by means of the Cheng-Prusoff equation (Cheng, Prusoff; Biochem. Pharmacol. 22, 3099-3108, 1973).
The affinity of the compounds according to the invention for the vanilloid receptor 1 (VR1/TRPV1 receptor) was determined as described above (pharmacological method I).

Where [1] appears, read: 5 μM compound, capsaicin (Cap), human being.

T1 sequence (Q8NER1 whole entry): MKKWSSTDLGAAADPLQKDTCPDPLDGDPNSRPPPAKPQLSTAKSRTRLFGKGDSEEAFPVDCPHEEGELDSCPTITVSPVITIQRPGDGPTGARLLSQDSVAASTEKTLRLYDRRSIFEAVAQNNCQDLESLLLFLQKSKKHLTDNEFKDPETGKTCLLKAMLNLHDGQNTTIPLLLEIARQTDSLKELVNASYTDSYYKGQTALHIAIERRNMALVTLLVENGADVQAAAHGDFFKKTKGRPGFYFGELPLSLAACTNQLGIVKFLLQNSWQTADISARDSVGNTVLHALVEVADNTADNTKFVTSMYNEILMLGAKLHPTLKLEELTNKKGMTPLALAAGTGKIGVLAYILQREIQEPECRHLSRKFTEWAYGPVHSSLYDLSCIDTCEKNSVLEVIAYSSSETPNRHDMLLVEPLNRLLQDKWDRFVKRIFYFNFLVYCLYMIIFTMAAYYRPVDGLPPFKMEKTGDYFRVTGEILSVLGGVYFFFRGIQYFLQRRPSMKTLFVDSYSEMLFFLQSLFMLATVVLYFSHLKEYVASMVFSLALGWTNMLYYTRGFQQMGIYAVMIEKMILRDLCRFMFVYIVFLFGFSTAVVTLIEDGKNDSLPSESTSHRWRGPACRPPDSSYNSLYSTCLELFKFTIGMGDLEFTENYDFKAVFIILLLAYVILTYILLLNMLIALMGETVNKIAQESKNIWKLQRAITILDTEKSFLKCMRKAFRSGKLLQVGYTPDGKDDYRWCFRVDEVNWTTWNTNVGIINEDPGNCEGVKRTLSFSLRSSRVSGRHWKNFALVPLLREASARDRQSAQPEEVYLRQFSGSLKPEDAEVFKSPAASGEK

As to `CC(C(=O)NCc1cc(C(F)(F)F)nn1-c1cccc(Cl)c1)c1ccc(CO)nc1` (stereo not shown) [Example 30, N-((1-(3-chlorophenyl)-3-(trifluoromethyl)-1H-pyrazol-5-yl)methyl)-2-(6-(hydroxymethyl)pyridin-3-yl)propanamide], the Ki is 1 nM.
Same read-out and setting: for `O=C(NCc1cc(C(F)(F)F)nn1-c1cccc(Cl)c1)Nc1ccc(CO)nc1` [Example 32, 1-((1-(3-chlorophenyl)-3-(trifluoromethyl)-1H-pyrazol-5-yl)methyl)-3-(6-(hydroxymethyl)pyridin-3-yl)urea] the value was 32 nM.
Consider `O=C(NCc1cc(C(F)(F)F)nn1-c1cccc(F)c1)Nc1ccc(CO)nc1` [Example 33, 1-((1-(3-fluorophenyl)-3-(trifluoromethyl)-1H-pyrazol-5-yl)methyl)-3-(6-(hydroxymethyl)pyridin-3-yl)urea], for which, under setting [1], the inhibition at 5 µM was determined as 41%.
As to `COc1ccc(-n2nc(C(F)(F)F)cc2CNC(=O)Nc2ccc(CO)nc2)cc1F` [Example 35, 1-((1-(3-fluoro-4-methoxyphenyl)-3-(trifluoromethyl)-1H-pyrazol-5-yl)methyl)-3-(6-(hydroxymethyl)pyridin-3-yl)urea], the “mode of action at VR1/TRPV1 (AG, pAG, NE), Cap” value (“mode of action at VR1/TRPV1” for short) (capsaicin (Cap), human being) was “NE”.
On to `Cc1cccc(-n2nc(C(F)(F)F)cc2CNC(=O)Nc2ccc(CO)nc2)c1` [Example 36, 1-(6-(hydroxymethyl)pyridin-3-yl)-3-((1-m-tolyl-3-(trifluoromethyl)-1H-pyrazol-5-yl)methyl)urea], for which the Ki was 101 nM.
With `COc1ccc(-n2nc(C(F)(F)F)cc2CNC(=O)Nc2ccc(CO)nc2)cc1C` [Example 37, 1-(6-(hydroxymethyl)pyridin-3-yl)-3-((1-(4-methoxy-3-methylphenyl)-3-(trifluoromethyl)-1H-pyrazol-5-yl)methyl)urea], the inhibition at 5 µM under setting [1] was 41%.
With `O=C(NCc1cc(C(F)(F)F)nn1-c1cccc(Cl)c1)Nc1cnc(CO)c(F)c1` [Example 50, 1-((1-(3-chlorophenyl)-3-(trifluoromethyl)-1H-pyrazol-5-yl)methyl)-3-(5-fluoro-6-(hydroxymethyl)pyridin-3-yl)urea], the Ki worked out at 24 nM.
For `CC(C(=O)NCc1cc(C(F)(F)F)nn1-c1cccc(Cl)c1)c1ccc(CCO)nc1` (stereo not shown) [Example 51, N-((1-(3-chlorophenyl)-3-(trifluoromethyl)-1H-pyrazol-5-yl)methyl)-2-(6-(2-hydroxyethyl)pyridin-3-yl)propanamide], the Ki was 8 nM.
For the molecule `O=C(NCc1cc(C(F)(F)F)nn1-c1cccc(Cl)c1)Nc1ccc(CCO)nc1` [Example 52, 1-((1-(3-chlorophenyl)-3-(trifluoromethyl)-1H-pyrazol-5-yl)methyl)-3-(6-(2-hydroxyethyl)pyridin-3-yl)urea], the inhibition at 5 µM under setting [1] came to 45%.
Consider `CC(C(=O)NCc1cc(C(F)(F)F)nn1-c1cccc(Cl)c1)c1ccc(COCCO)nc1` (stereo not shown) [Example 53, N-((1-(3-chlorophenyl)-3-(trifluoromethyl)-1H-pyrazol-5-yl)methyl)-2-(6-((2-hydroxyethoxy)methyl)pyridin-3-yl)propanamide], for which the Ki came to 44 nM.
Turning to `O=C(NCc1cc(C(F)(F)F)nn1-c1cccc(F)c1)Nc1ccc(C2CCOCC2)nc1` [Example 54, 1-((1-(3-fluorophenyl)-3-(trifluoromethyl)-1H-pyrazol-5-yl)methyl)-3-(6-(tetrahydro-2H-pyran-4-yl)pyridin-3-yl)urea], the “mode of action at VR1/TRPV1” value (capsaicin (Cap), human being) is reported as “NE”.
As for `CC(C(=O)NCc1cc(C(F)(F)F)nn1-c1cccc(Cl)c1)c1ccc(C(N)=O)nc1` (stereo not shown) [Example 55, 5-(1-((1-(3-chlorophenyl)-3-(trifluoromethyl)-1H-pyrazol-5-yl)methylamino)-1-oxopropan-2-yl)picolinamide], the Ki turned out to be 23 nM.
Turning to `CC(C(=O)NCc1cc(C(C)(C)C)nn1-c1cccc(Cl)c1)c1ccc(C(N)=O)nc1` (stereo not shown) [Example 56, 5-(1-((3-tert-butyl-1-(3-chlorophenyl)-1H-pyrazol-5-yl)methylamino)-1-oxopropan-2-yl)picolinamide], the inhibition at 5 µM under setting [1] was 77%. The “mode of action at VR1/TRPV1” value (capsaicin (Cap), human being) is listed as “AG”.
For `CC(C(=O)NCc1cc(C(F)(F)F)nn1-c1cccc(Cl)c1)c1ccc(C(=O)Nc2ccccc2)nc1` (stereo not shown) [Example 57], the “inhibition (as a percentage) at the concentration after @, Cap” value under setting [1] is listed as 60%@5 μM.
For `CC(C(=O)NCc1cc(C(F)(F)F)nn1-c1cccc(Cl)c1)c1ccc(C(=O)Nc2ccc(F)cc2)nc1` (stereo not shown) [Example 58, 5-(1-((1-(3-chlorophenyl)-3-(trifluoromethyl)-1H-pyrazol-5-yl)methylamino)-1-oxopropan-2-yl)-N-(4-fluorophenyl)picolinamide], the Ki turned out to be 5 nM.
Turning to `CC(C(=O)NCc1cc(C(F)(F)F)nn1-c1cccc(Cl)c1)c1ccc(C(=O)Nc2ccc(C(F)(F)F)cc2)nc1` (stereo not shown) [Example 59, 5-(1-((1-(3-chlorophenyl)-3-(trifluoromethyl)-1H-pyrazol-5-yl)methylamino)-1-oxopropan-2-yl)-N-(4-(trifluoromethyl)phenyl)picolinamide], under setting [1], the inhibition at 5 µM stood at 24%.
As for `CC(C(=O)NCc1cc(C(C)(C)C)nn1-c1cccc(Cl)c1)c1ccc(C(=O)Nc2ccc(F)cc2)nc1` (stereo not shown) [Example 60, 5-(1-((3-tert-butyl-1-(3-chlorophenyl)-1H-pyrazol-5-yl)methylamino)-1-oxopropan-2-yl)-N-(4-fluorophenyl)picolinamide], the Ki is 4 nM.
Same read-out and setting: next, `CC(C(=O)NCc1cc(C(C)(C)C)nn1-c1cccc(Cl)c1)c1ccc(C(=O)Nc2ccc(C(F)(F)F)cc2)nc1` (stereo not shown) [Example 61, 5-(1-((3-tert-butyl-1-(3-chlorophenyl)-1H-pyrazol-5-yl)methylamino)-1-oxopropan-2-yl)-N-(4-(trifluoromethyl)phenyl)picolinamide]: 45 nM.
In the case of `CC(C(=O)NCc1cc(C(F)(F)F)nn1-c1cccc(Cl)c1)c1cnc(C(=O)Nc2ccccc2)nc1` (stereo not shown) [Example 62, 5-(1-((1-(3-chlorophenyl)-3-(trifluoromethyl)-1H-pyrazol-5-yl)methylamino)-1-oxopropan-2-yl)-N-phenylpyrimidine-2-carboxamide], the inhibition at 5 µM under setting [1] worked out at 53%.
For `CC(C(=O)NCc1cc(C(F)(F)F)nn1-c1cccc(Cl)c1)c1cnc(C(=O)Nc2ccc(F)cc2)nc1` (stereo not shown) [Example 63, 5-(1-((1-(3-chlorophenyl)-3-(trifluoromethyl)-1H-pyrazol-5-yl)methylamino)-1-oxopropan-2-yl)-N-(4-fluorophenyl)pyrimidine-2-carboxamide], the Ki came out at 6 nM.
For the molecule `CC(C(=O)NCc1cc(C(F)(F)F)nn1-c1cccc(Cl)c1)c1cnc(C(=O)Nc2ccc(C(F)(F)F)cc2)nc1` (stereo not shown) [Example 64, 5-(1-((1-(3-chlorophenyl)-3-(trifluoromethyl)-1H-pyrazol-5-yl)methylamino)-1-oxopropan-2-yl)-N-(4-(trifluoromethyl)phenyl)pyrimidine-2-carboxamide], the Ki is 61 nM.
Consider `CC(C(=O)NCc1cc(C(C)(C)C)nn1-c1cccc(Cl)c1)c1cnc(C(=O)Nc2ccccc2)nc1` (stereo not shown) [Example 65, 5-(1-((3-tert-butyl-1-(3-chlorophenyl)-1H-pyrazol-5-yl)methylamino)-1-oxopropan-2-yl)-N-phenylpyrimidine-2-carboxamide], for which the Ki was found to be 70 nM.
The same measure, in the same setting: for `CC(C(=O)NCc1cc(C(C)(C)C)nn1-c1cccc(Cl)c1)c1cnc(C(=O)Nc2ccc(F)cc2)nc1` (stereo not shown) [Example 66, 5-(1-((3-tert-butyl-1-(3-chlorophenyl)-1H-pyrazol-5-yl)methylamino)-1-oxopropan-2-yl)-N-(4-fluorophenyl)pyrimidine-2-carboxamide] the value was 3 nM; for `CC(C(=O)NCc1cc(C(C)(C)C)nn1-c1cccc(Cl)c1)c1cnc(C(=O)Nc2ccc(C(F)(F)F)cc2)nc1` (stereo not shown) [Example 67, 5-(1-((3-tert-butyl-1-(3-chlorophenyl)-1H-pyrazol-5-yl)methylamino)-1-oxopropan-2-yl)-N-(4-(trifluoromethyl)phenyl)pyrimidine-2-carboxamide], 13 nM.
